Calls of active or inactive are those of the source. The rule behind the calls is not given here.
Assays:
[1] = target: Cannabinoid receptor 1 (Homo sapiens) (UniProt P21554); test: CB1(HU)_AGON Eurofins SafetyScreen44 (BI); settings: filed as agonist; Compound concentration 10.0 uM
[2] = tested on: Voltage-gated K+ channel Kv1 (Rattus norvegicus); test: K+/VOLT/RA Eurofins SafetyScreen44 (BI); settings: rat brain, probe [125I]a-dendrotoxin, read-out: % Ctrl
[3] = target: T1, B-cell lymphoma 6 protein (Homo sapiens, UniProt P41182); test: SPR (BCL6), Ontario institute for cancer research
[4] = target: Histamine H2 receptor (Homo sapiens) (UniProt P25021); settings: Compound concentration 10.0 uM
[5] = target: Sodium-dependent dopamine transporter (Homo sapiens) (UniProt Q01959); settings: Compound concentration 10.0 uM
[6] = target: Serine/threonine-protein kinase PAK 4 (Homo sapiens) (UniProt O96013); test: PAK4 Invitrogen Lab (UK) kinase screen (BI); settings: Compound concentration 1.0 uM
[7] = target: Interleukin-1 receptor-associated kinase 4 (Homo sapiens) (UniProt Q9NWZ3); test: IRAK4 Invitrogen Lab (UK) kinase screen (BI); settings: Compound concentration 1.0 uM
[8] = target: Mitogen-activated protein kinase 14 (Homo sapiens) (UniProt Q16539); test: MAPK14 Invitrogen Lab (UK) kinase screen (BI); settings: Compound concentration 1.0 uM
[9] = target: T1, B-cell lymphoma 6 protein; test: BCL6::NCOR LUMIER in cells
[10] = target: Tyrosine-protein kinase ABL1 (Homo sapiens) (UniProt P00519); test: ABL1 Invitrogen Lab (UK) kinase screen (BI); settings: Compound concentration 1.0 uM
[11] = target: BDNF/NT-3 growth factors receptor (Homo sapiens) (UniProt Q16620); test: NTRK2 Invitrogen Lab (UK) kinase screen (BI); settings: Compound concentration 1.0 uM
[12] = target: Mitogen-activated protein kinase kinase kinase 8 (Homo sapiens) (UniProt P41279); test: MAP3K8 Invitrogen Lab (UK) kinase screen (BI); settings: Compound concentration 1.0 uM
[13] = target: 5-hydroxytryptamine receptor 1D (Homo sapiens) (UniProt P28221); settings: Compound concentration 10.0 uM
[14] = target: T2, Muscarinic acetylcholine receptor M2 (Homo sapiens) (UniProt P08172); settings: Compound concentration 10.0 uM
T2 sequence (whole entry): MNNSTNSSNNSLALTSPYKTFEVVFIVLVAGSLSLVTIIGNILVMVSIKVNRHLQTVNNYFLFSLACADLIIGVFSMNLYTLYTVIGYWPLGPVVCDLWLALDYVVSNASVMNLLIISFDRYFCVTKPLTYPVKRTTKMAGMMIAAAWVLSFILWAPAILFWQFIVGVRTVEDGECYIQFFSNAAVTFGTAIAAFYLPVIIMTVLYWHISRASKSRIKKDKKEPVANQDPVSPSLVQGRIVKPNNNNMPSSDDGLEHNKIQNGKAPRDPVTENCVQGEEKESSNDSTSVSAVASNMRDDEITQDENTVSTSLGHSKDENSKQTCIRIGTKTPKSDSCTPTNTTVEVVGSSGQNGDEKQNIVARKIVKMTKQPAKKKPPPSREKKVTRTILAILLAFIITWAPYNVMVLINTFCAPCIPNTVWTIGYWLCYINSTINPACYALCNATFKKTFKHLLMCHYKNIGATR

[15] = tested on: Voltage-gated K+ channel Kv1 (Rattus norvegicus); test: K+/VOLT/RA Eurofins SafetyScreen44 (BI); settings: rat brain, probe [125I]a-dendrotoxin, read-out: % Ctrl; remark: listed apart in the source
[16] = target: Mitogen-activated protein kinase 9 (Homo sapiens) (UniProt P45984); test: MAPK9 Invitrogen Lab (UK) kinase screen (BI); settings: Compound concentration 1.0 uM
[17] = target: Leucine-rich repeat serine/threonine-protein kinase 2 (Homo sapiens) (UniProt Q5S007); test: LRRK2 Invitrogen Lab (UK) kinase screen (BI); settings: Compound concentration 1.0 uM
[18] = target: Mitogen-activated protein kinase 1 (Homo sapiens) (UniProt P28482); test: MAPK1 Invitrogen Lab (UK) kinase screen (BI); settings: Compound concentration 1.0 uM
[19] = target: D(1A) dopamine receptor (Homo sapiens) (UniProt P21728); settings: Compound concentration 10.0 uM
[20] = target: SRSF protein kinase 2 (Homo sapiens) (UniProt P78362); test: SRPK2 Invitrogen Lab (UK) kinase screen (BI); settings: Compound concentration 1.0 uM
[21] = target: Glycogen synthase kinase-3 beta (Homo sapiens) (UniProt P49841); test: GSK3B Invitrogen Lab (UK) kinase screen (BI); settings: Compound concentration 1.0 uM
[22] = target: Serine/threonine-protein kinase Chk1 (Homo sapiens) (UniProt O14757); test: CHEK1 Invitrogen Lab (UK) kinase screen (BI); settings: Compound concentration 1.0 uM
[23] = target: Mitogen-activated protein kinase 8 (Homo sapiens) (UniProt P45983); test: MAPK8 Invitrogen Lab (UK) kinase screen (BI); settings: Compound concentration 1.0 uM
[24] = target: Alpha-2B adrenergic receptor (Homo sapiens) (UniProt P18089); settings: Compound concentration 10.0 uM
[25] = target: Ribosomal protein S6 kinase alpha-3 (Homo sapiens) (UniProt P51812); test: RPS6KA3 Invitrogen Lab (UK) kinase screen (BI); settings: Compound concentration 1.0 uM
[26] = target: cAMP-dependent protein kinase catalytic subunit alpha (Homo sapiens) (UniProt P17612); test: PRKACA Invitrogen Lab (UK) kinase screen (BI); settings: Compound concentration 1.0 uM
[27] = target: Vascular endothelial growth factor receptor 2 (Homo sapiens) (UniProt P35968); test: KDR Invitrogen Lab (UK) kinase screen (BI); settings: Compound concentration 1.0 uM
[28] = target: MAP kinase-activated protein kinase 3 (Homo sapiens) (UniProt Q16644); test: MAPKAPK3 Invitrogen Lab (UK) kinase screen (BI); settings: Compound concentration 1.0 uM
[29] = target: Serine/threonine-protein kinase TBK1 (Homo sapiens) (UniProt Q9UHD2); test: TBK1 Invitrogen Lab (UK) kinase screen (BI); settings: Compound concentration 1.0 uM
[30] = target: 5-hydroxytryptamine receptor 2B (Homo sapiens) (UniProt P41595); settings: Compound concentration 10.0 uM
[31] = target: RAC-beta serine/threonine-protein kinase (Homo sapiens) (UniProt P31751); test: AKT2 Invitrogen Lab (UK) kinase screen (BI); settings: Compound concentration 1.0 uM
[32] = target: Serine/threonine-protein kinase Chk2 (Homo sapiens) (UniProt O96017); test: CHEK2 Invitrogen Lab (UK) kinase screen (BI); settings: Compound concentration 1.0 uM
[33] = target: Cannabinoid receptor 1 (Homo sapiens) (UniProt P21554); test: CB1/CENTR/H Eurofins SafetyScreen44 (BI); settings: Compound concentration 10.0 uM
[34] = target: Dual specificity mitogen-activated protein kinase kinase 1 (Homo sapiens) (UniProt Q02750); test: MAP2K1 Invitrogen Lab (UK) kinase screen (BI); settings: Compound concentration 1.0 uM
[35] = target: Kappa-type opioid receptor (Rattus norvegicus) (UniProt P34975); test: KAPPA/R Eurofins SafetyScreen44 (BI); settings: Compound concentration 10.0 uM
[36] = target: Ribosomal protein S6 kinase beta-1 (Homo sapiens) (UniProt P23443); test: RPS6KB1 Invitrogen Lab (UK) kinase screen (BI); settings: Compound concentration 1.0 uM
[37] = target: Serine/threonine-protein kinase PLK1 (Homo sapiens) (UniProt P53350); test: PLK1 Invitrogen Lab (UK) kinase screen (BI); settings: Compound concentration 1.0 uM
[38] = target: Aurora kinase B (Homo sapiens) (UniProt Q96GD4); test: AURKB Invitrogen Lab (UK) kinase screen (BI); settings: Compound concentration 1.0 uM

Cannabinoid receptor 1 (Homo sapiens), sequence (P21554 whole entry): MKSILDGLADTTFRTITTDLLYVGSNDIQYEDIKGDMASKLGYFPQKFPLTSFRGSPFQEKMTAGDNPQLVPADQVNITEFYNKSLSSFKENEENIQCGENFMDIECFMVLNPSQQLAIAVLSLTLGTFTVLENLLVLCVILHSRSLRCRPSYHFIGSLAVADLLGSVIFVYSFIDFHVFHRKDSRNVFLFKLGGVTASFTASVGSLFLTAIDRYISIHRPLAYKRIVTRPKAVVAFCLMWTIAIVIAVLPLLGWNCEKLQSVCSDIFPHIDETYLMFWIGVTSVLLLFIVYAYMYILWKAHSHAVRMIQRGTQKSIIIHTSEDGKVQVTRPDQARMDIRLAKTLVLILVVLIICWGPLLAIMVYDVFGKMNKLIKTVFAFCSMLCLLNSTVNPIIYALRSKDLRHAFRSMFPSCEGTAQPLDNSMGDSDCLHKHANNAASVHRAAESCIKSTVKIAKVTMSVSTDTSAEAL
Alpha-2B adrenergic receptor (Homo sapiens), sequence (P18089 whole entry): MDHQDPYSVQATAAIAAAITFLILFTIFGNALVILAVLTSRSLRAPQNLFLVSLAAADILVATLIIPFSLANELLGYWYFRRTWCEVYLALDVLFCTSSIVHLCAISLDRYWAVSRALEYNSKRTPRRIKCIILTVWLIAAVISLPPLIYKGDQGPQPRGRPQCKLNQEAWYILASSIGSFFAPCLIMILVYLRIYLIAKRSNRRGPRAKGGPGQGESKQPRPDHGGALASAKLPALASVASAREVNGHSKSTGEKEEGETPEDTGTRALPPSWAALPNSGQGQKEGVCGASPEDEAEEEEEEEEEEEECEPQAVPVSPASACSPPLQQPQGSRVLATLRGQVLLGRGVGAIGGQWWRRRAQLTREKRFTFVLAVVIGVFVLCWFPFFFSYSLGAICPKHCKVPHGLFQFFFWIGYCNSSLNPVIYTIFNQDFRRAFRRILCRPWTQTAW
Histamine H2 receptor (Homo sapiens), sequence (P25021 whole entry): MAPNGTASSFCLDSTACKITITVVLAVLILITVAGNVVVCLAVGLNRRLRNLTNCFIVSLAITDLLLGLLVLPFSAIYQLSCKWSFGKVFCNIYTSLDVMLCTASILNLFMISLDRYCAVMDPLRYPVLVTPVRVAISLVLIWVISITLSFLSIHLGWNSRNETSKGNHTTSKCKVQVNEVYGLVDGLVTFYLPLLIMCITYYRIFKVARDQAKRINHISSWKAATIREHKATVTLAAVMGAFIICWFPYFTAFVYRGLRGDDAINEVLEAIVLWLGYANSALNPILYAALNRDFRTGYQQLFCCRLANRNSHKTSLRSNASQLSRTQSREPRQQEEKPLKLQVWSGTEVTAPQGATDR
5-hydroxytryptamine receptor 2B (Homo sapiens), sequence (P41595 whole entry): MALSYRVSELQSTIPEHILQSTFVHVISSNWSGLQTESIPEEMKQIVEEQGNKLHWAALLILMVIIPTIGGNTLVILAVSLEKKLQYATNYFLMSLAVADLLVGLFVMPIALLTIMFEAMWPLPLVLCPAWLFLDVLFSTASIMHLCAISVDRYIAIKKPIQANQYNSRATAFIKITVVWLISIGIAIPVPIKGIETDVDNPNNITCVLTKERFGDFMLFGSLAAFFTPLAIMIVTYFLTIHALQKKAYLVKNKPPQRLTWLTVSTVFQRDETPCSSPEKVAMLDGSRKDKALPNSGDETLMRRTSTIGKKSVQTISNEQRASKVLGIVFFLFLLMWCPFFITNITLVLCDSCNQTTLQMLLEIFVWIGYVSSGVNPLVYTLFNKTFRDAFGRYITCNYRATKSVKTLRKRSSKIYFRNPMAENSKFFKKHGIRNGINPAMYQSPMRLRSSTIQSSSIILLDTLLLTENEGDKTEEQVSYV
D(1A) dopamine receptor (Homo sapiens), sequence (P21728 whole entry): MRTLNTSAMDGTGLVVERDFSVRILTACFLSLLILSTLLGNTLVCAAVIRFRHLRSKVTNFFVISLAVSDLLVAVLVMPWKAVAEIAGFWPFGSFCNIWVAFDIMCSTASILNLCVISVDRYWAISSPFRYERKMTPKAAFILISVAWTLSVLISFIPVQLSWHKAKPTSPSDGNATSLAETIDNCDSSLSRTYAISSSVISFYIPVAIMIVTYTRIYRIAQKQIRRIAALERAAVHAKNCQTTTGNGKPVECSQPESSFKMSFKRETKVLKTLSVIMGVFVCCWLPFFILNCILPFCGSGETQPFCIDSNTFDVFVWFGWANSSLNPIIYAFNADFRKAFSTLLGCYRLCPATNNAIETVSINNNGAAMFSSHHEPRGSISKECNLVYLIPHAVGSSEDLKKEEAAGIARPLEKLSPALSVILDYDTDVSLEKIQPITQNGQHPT
5-hydroxytryptamine receptor 1D (Homo sapiens), sequence (P28221 whole entry): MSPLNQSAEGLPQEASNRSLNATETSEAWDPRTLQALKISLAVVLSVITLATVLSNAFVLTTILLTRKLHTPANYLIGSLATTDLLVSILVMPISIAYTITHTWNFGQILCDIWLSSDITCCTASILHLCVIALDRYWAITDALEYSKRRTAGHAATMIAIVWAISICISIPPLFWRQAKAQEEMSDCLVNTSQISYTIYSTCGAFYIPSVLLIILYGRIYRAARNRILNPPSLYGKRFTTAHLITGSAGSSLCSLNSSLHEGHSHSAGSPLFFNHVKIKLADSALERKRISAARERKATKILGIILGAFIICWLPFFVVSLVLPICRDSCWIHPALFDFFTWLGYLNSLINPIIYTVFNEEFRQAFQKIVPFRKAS
Sodium-dependent dopamine transporter (Homo sapiens), sequence (Q01959 whole entry): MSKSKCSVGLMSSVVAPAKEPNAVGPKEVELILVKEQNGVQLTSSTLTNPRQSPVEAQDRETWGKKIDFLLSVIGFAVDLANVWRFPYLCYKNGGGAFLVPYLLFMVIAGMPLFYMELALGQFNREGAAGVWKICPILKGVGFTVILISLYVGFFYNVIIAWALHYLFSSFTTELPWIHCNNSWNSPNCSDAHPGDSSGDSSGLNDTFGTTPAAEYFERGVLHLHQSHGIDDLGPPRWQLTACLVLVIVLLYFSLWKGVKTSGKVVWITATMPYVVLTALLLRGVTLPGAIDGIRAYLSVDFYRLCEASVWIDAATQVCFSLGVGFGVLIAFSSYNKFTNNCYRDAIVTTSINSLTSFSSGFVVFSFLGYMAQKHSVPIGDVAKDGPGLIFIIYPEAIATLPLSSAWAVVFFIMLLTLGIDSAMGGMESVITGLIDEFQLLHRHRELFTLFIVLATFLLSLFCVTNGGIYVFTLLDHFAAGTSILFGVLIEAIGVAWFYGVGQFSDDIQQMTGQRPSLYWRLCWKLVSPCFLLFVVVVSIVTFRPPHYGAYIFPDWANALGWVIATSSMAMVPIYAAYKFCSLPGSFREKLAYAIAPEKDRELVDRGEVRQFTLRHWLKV
Mitogen-activated protein kinase kinase kinase 8 (Homo sapiens), sequence (P41279 whole entry): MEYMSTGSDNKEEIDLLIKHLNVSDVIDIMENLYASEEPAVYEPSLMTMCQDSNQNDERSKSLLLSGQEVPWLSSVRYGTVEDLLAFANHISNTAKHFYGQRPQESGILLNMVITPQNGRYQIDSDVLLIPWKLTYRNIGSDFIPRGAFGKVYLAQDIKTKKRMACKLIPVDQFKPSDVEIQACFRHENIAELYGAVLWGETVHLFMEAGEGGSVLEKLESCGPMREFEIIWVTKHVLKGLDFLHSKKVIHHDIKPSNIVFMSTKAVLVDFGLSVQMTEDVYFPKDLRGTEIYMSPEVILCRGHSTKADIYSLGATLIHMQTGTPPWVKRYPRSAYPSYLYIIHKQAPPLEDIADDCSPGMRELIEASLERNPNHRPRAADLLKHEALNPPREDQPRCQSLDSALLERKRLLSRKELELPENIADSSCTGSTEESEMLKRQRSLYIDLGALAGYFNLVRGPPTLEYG
Ribosomal protein S6 kinase alpha-3 (Homo sapiens), sequence (P51812 whole entry): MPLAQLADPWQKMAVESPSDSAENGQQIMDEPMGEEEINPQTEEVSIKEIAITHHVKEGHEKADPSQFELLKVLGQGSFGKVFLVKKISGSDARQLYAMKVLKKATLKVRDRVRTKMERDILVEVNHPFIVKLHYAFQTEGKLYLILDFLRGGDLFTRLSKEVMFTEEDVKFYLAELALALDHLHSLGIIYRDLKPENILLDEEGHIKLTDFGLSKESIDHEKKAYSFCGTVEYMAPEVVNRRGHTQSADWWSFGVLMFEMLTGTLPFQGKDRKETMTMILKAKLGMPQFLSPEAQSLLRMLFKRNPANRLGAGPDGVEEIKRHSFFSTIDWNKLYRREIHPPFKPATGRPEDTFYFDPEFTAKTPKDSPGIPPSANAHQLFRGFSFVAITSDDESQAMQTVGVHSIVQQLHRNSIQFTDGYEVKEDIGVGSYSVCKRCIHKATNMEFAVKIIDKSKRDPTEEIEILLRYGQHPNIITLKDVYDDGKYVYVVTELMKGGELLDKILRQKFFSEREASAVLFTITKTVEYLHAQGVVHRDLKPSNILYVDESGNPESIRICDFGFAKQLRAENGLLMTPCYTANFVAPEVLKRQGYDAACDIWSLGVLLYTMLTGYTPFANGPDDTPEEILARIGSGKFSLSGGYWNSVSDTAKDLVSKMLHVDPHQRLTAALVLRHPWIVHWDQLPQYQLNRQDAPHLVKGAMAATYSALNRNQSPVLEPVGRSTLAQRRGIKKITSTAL
Mitogen-activated protein kinase 9 (Homo sapiens), sequence (P45984 whole entry, looked up): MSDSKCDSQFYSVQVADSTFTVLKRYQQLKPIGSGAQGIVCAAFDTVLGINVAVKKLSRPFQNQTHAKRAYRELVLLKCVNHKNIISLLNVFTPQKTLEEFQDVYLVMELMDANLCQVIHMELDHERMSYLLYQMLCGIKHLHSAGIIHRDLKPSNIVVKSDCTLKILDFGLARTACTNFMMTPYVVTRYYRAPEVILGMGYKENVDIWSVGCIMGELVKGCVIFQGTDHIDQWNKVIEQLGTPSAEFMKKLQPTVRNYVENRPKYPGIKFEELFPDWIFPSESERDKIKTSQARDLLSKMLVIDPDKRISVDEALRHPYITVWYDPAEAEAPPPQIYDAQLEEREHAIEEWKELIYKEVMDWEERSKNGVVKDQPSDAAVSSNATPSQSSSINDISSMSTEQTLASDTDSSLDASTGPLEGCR

C[C@@H]1C[C@H](C)CN(c2ncc(Cl)c(Nc3ccc4c(c3)cc(OC(C)(C)C(=O)O)c(=O)n4C)n2)C1
residual activity [1]: 95% | activity at 10 µM [2]: 97% (not active) | Kd [3]: 1410 nM (not active)

CNC(=O)COc1cc2cc(Nc3nc(N4C[C@H](C)C[C@H](C)C4)ncc3Cl)ccc2n(C)c1=O
inhibition [4]: 13.9% | inhibition [5]: 12.6% | residual activity [6]: 94% | residual activity [7]: 90% | residual activity [8]: 100% | IC50 [9]: 43 nM (active) | residual activity [10]: 103% | residual activity [11]: 99% | residual activity [12]: 118% | inhibition [13]: 13.7% | inhibition [14]: -5.1% | activity at 10 µM [15]: 105% (not active) | residual activity [16]: 110% | residual activity [17]: 78% | residual activity [18]: 106% | inhibition [19]: -4.07% | residual activity [20]: 106% | residual activity [21]: 93% | residual activity [22]: 89% | residual activity [23]: 120% | inhibition [24]: 7.35% | residual activity [25]: 89% | residual activity [26]: 91% | residual activity [27]: 111% | residual activity [28]: 97% | residual activity [29]: 120% | inhibition [30]: -5.25% | residual activity [31]: 96% | residual activity [32]: 96% | residual activity [33]: 84% | residual activity [34]: 71% | residual activity [35]: 89% | residual activity [36]: 97% | residual activity [37]: 92% | residual activity [38]: 97%
